The values that follow come from patent publication US20090304692A1, “TRIAZINE COMPOUNDS AS PI3 KINASE AND MTOR INHIBITORS” (Wyeth, priority 2008, published 2009).

The target in one assay is Human mTOR (FLAG-TOR) (Homo sapiens, UniProt P42345). In words: mTOR kinase assay (DELFIA format, purified enzyme). It counts as biochemical. To be noted: read-out: IC50 mTOR.
A further assay deals with PI3K-α (Homo sapiens, UniProt P42336). In words: PI3K-alpha fluorescence polarization assay. (In general: Fluorescence polarisation rises when a labelled molecule tumbles more slowly, as on binding a larger partner.)
PI3K-α, sequence (P42336 whole entry, species assumed): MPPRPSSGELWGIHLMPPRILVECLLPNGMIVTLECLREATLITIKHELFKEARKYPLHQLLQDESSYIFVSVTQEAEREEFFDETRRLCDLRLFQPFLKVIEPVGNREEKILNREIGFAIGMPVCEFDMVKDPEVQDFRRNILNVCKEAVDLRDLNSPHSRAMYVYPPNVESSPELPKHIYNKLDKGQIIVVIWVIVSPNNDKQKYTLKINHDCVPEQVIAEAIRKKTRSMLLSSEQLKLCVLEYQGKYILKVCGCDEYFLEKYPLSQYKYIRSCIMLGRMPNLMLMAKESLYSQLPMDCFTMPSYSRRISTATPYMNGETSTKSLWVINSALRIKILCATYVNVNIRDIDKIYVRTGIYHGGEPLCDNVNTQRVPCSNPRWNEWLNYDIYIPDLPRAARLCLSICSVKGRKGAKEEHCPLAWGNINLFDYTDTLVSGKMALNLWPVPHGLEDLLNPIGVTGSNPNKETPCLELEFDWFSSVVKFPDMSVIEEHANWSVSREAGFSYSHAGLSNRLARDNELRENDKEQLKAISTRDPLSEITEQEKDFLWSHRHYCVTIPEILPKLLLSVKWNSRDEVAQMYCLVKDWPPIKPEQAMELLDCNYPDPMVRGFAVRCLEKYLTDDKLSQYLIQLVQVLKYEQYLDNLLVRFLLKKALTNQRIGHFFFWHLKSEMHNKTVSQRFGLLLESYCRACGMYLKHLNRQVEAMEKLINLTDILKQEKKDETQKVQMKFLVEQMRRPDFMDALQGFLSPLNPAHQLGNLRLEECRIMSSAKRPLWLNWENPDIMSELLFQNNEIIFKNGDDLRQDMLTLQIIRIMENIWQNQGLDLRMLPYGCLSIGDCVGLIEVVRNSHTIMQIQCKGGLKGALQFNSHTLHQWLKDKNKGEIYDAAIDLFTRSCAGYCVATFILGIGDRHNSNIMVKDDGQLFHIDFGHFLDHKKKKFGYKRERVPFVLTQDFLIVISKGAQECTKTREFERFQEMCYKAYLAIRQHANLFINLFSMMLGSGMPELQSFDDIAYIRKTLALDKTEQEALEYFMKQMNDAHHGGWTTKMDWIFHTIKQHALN
PI3K-α, sequence (P27986 whole entry partner, species assumed): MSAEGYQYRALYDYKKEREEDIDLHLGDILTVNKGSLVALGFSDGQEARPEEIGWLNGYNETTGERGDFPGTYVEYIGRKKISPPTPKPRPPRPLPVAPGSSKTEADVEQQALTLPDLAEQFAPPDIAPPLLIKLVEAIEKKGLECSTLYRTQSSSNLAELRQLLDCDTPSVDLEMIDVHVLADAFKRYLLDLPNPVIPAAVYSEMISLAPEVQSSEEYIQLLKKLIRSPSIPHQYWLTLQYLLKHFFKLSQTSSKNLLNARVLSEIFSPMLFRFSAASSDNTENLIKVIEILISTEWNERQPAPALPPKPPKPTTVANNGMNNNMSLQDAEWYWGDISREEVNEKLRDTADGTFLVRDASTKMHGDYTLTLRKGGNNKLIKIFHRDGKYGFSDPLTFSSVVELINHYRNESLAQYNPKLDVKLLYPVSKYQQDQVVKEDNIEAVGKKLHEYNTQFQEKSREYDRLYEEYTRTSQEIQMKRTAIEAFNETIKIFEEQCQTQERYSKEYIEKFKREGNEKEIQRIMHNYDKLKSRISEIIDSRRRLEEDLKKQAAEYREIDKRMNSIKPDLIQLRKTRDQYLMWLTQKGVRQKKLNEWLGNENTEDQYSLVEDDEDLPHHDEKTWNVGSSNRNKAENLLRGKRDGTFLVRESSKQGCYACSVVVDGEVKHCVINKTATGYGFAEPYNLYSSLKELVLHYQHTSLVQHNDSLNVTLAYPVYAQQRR
Another assay deals with PI3K-γ (Homo sapiens, UniProt P48736). In words: PI3K-gamma fluorescence polarization assay.
PI3K-γ, sequence (P48736 whole entry, species assumed): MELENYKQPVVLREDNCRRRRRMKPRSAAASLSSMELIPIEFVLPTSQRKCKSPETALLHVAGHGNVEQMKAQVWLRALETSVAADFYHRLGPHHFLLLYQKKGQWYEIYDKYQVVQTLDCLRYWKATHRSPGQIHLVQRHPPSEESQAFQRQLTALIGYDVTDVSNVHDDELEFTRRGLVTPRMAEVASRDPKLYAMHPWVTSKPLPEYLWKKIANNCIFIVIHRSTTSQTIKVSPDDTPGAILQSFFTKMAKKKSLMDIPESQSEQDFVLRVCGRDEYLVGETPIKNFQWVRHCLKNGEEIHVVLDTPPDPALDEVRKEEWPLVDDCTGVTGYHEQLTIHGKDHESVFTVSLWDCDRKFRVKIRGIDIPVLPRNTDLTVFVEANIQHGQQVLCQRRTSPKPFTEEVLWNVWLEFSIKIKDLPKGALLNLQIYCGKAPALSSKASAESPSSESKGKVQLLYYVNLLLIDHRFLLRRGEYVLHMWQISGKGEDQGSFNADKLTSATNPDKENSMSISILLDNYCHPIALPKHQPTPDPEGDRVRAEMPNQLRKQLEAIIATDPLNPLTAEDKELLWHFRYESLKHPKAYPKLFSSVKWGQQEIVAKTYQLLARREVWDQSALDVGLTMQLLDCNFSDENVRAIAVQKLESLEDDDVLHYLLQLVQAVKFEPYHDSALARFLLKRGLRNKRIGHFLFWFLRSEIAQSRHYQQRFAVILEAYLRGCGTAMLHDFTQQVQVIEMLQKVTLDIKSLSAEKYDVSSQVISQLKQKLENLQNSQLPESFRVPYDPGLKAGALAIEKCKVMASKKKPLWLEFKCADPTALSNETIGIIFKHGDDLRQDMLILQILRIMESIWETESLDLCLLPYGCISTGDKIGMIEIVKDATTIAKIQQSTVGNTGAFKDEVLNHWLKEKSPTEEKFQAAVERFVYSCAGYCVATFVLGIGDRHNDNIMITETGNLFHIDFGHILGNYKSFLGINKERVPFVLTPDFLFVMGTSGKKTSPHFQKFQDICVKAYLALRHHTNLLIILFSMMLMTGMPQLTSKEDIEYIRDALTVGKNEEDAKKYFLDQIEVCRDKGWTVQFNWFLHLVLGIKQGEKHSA
Assay [1] deals with human prostate LNCap tumor cell line. Nature of the assay: In vitro cell culture growth assay (MTS), LNCap. To be noted: read-out: IC50 LNCap.
Where [2] appears, read: MTS cell growth assay, three days after drug treatment.

Like-named read-outs stand apart in the source and are kept apart here.

Human mTOR (FLAG-TOR), sequence (P42345 1360-2549 limits assumed): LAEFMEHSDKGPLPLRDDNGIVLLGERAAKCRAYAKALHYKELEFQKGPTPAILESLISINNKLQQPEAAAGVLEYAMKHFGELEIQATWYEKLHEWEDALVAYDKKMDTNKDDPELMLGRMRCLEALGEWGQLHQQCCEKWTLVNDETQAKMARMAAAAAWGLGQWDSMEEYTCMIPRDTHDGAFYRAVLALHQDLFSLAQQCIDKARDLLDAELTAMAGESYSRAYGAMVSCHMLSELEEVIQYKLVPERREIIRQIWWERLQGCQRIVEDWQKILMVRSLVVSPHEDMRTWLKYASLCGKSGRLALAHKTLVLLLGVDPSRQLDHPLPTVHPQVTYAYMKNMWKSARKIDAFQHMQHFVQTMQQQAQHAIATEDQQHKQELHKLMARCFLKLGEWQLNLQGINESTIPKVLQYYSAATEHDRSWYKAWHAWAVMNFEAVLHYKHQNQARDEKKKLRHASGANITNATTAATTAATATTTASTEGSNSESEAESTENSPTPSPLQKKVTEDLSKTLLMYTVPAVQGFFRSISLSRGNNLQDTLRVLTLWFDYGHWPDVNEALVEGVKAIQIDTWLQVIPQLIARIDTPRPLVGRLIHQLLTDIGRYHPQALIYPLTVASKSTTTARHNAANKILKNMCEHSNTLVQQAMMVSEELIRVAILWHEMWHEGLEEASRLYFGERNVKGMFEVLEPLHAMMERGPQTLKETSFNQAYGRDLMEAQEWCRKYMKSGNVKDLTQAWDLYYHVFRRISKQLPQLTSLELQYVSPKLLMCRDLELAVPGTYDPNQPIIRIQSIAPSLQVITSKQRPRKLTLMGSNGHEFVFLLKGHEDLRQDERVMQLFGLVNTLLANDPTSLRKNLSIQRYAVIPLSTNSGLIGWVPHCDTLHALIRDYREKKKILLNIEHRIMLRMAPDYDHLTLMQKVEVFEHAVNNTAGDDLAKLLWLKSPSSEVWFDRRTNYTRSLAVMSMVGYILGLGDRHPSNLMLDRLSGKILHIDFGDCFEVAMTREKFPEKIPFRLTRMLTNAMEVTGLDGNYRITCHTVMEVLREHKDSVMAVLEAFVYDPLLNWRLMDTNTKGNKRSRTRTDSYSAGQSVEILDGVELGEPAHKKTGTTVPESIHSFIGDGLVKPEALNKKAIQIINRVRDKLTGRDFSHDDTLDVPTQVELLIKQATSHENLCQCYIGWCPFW

One may read the IC50 as the concentration that inhibits the measured activity by half. Regarding “1-(4-(4-(3-oxa-8-azabicyclo[3.2.1]octan-8-yl)-6-(piperidin-4-ylamino)-1,3,5-triazin-2-yl)phenyl)-3-ethylurea [Example 361]”, the IC50 on Human mTOR (FLAG-TOR) was 1.3 nM; on PI3K-α (read-out: IC50 PI3Kα), 6030 nM; on PI3K-γ (read-out: IC50 PI3Kγ) it was > 10000 nM; in assay [1] (setting [2]) it was 2.2 nM.

With “1-(4-(4-(3-oxa-8-azabicyclo[3.2.1]octan-8-yl)-6-(piperidin-4-ylamino)-1,3,5-triazin-2-yl)phenyl)-3-ethylurea [Example 362]”, the IC50 on Human mTOR (FLAG-TOR) is 0.74 nM; at PI3K-α (read-out: IC50 PI3Kα), 3090 nM; on PI3K-γ (read-out: IC50 PI3Kγ), > 10000 nM; in assay [1] (setting [2]), 1 nM.

On to “1-(4-(4-(3-oxa-8-azabicyclo[3.2.1]octan-8-yl)-6-(piperidin-4-ylamino)-1,3,5-triazin-2-yl)phenyl)-3-ethylurea [Example 364]”, for which the IC50 worked out at 3.5 nM on Human mTOR (FLAG-TOR), 1460 nM on PI3K-α (read-out: IC50 PI3Kα), 8040 nM at PI3K-γ (read-out: IC50 PI3Kγ) and 70 nM in assay [1] (setting [2]).

Turning to “1-{4-[4-(4-morpholin-4-ylpiperidin-1-yl)-6-(8-oxa-3-azabicyclo[3.2.1]oct-3-yl)-1,3,5-triazin-2-yl]phenyl}-3-pyridin-4-ylurea [Example 121]”, the concentration for half-maximal inhibition (IC50) was found to be 43.5 nM at Human mTOR (FLAG-TOR), 1850 nM at PI3K-α (read-out: IC50 PI3Kα), 4000 nM at PI3K-γ (read-out: IC50 PI3Kγ) and 1000 nM in assay [1] (setting [2]).

Take `CNC(=O)Nc1ccc(-c2nc(N3CC4CCC(C3)O4)nc(N3CC4CCC(C3)O4)n2)cc1` [Example 26, 1-[4-(4,6-di-8-oxa-3-azabicyclo[3.2.1]oct-3-yl-1,3,5-triazin-2-yl)phenyl]-3-methylurea]: the IC50 at Human mTOR (FLAG-TOR) is 2.5 nM; at PI3K-α (read-out: IC50 PI3Kα) it was 680 nM; in assay [1] (Homo sapiens, LNCaP, 72 h) it was 190 nM.

For `O=C(Nc1ccc(-c2nc(N3CC4CCC(C3)O4)nc(N3CC4CCC(C3)O4)n2)cc1)OCCO` [Example 27, 2-hydroxyethyl[4-(4,6-di-8-oxa-3-azabicyclo[3.2.1]oct-3-yl-1,3,5-triazin-2-yl)phenyl]carbamate], the IC50 on Human mTOR (FLAG-TOR) is 4.15 nM; at PI3K-α (read-out: IC50 PI3Kα) it was 1230 nM; against PI3K-γ, > 10000 nM; in assay [1] (Homo sapiens, LNCaP, 72 h), 350 nM.

Take `CN1CCN(c2ccc(NC(=O)Nc3ccc(-c4nc(N5CC6CCC(C5)O6)nc(N5CC6CCC(C5)O6)n4)cc3)cc2)CC1` [Example 28, 1-[4-(4,6-di-8-oxa-3-azabicyclo[3.2.1]oct-3-yl-1,3,5-triazin-2-yl)phenyl]-3-[4-(4-methylpiperazin-1-yl)phenyl]urea]: the IC50 at Human mTOR (FLAG-TOR) was 0.95 nM; at PI3K-α (read-out: IC50 PI3Kα) it was 54 nM; on PI3K-γ (read-out: IC50 PI3Kγ) it was 5550 nM; in assay [1] (Homo sapiens, LNCaP, 72 h) it was 2.4 nM.

As for `O=C(O)CNC1CCN(c2nc(-c3ccc(NC(=O)Nc4ccncc4)cc3)nc(N3CC4CCC(C3)O4)n2)CC1` [Example 128, 2-(1-(4-(8-oxa-3-azabicyclo[3.2.1]octan-3-yl)-6-(4-(3-pyridin-4-ylureido)phenyl)-1,3,5-triazin-2-yl)piperidin-4-ylamino)acetic acid], the IC50 worked out at 31 nM on Human mTOR (FLAG-TOR); 1330 nM at PI3K-α (read-out: IC50 PI3Kα); 30000 nM in assay [1] (Homo sapiens, LNCaP, 72 h).

Take `CN1CCN(c2ccc(NC(=O)Nc3ccc(-c4nc(-c5ccc(NC(=O)NC6CC6)cc5)nc(N5CC6CCC(C5)O6)n4)cc3)cc2)CC1` [Example 146, 1-cyclopropyl-3-(4-{4-[4-({[4-(4-methylpiperazin-1-yl)phenyl]carbamoyl}amino)phenyl]-6-(8-oxa-3-azabicyclo[3.2.1]oct-3-yl)-1,3,5-triazin-2-yl}phenyl)urea]: the IC50 was 3 nM at Human mTOR (FLAG-TOR); > 10000 nM on PI3K-α; 5 nM in assay [1] (Homo sapiens, LNCaP, 72 h).

As for `O=C(Nc1ccc(-c2nc(NCCO)nc(N3CC4CCC(C3)O4)n2)cc1)Nc1cccnc1` [Example 153, 1-(4-{4-[(2-hydroxyethyl)amino]-6-(8-oxa-3-azabicyclo[3.2.1]oct-3-yl)-1,3,5-triazin-2-yl}phenyl)-3-pyridin-3-ylurea], the IC50 on Human mTOR (FLAG-TOR) came out at 15 nM; on PI3K-α (read-out: IC50 PI3Kα) it was 868 nM; in assay [1] (Homo sapiens, LNCaP, 72 h) it was 4200 nM.

Consider `NCCCNc1nc(-c2ccc(NC(=O)Nc3cccnc3)cc2)nc(N2CC3CCC(C2)O3)n1` [Example 156, 1-(4-{4-[(3-aminopropyl)amino]-6-(8-oxa-3-azabicyclo[3.2.1]oct-3-yl)-1,3,5-triazin-2-yl}phenyl)-3-pyridin-3-ylurea], for which the concentration for half-maximal inhibition (IC50) came out at 53 nM at Human mTOR (FLAG-TOR); 746 nM on PI3K-α (read-out: IC50 PI3Kα); 22000 nM in assay [1] (Homo sapiens, LNCaP, 72 h).

Consider `CN1CCCN(c2nc(-c3ccc(NC(=O)Nc4cccnc4)cc3)nc(N3CC4CCC(C3)O4)n2)C1` [Example 172, 1-{4-[4-(3-methyltetrahydropyrimidin-1(2H)-yl)-6-(8-oxa-3-azabicyclo[3.2.1]oct-3-yl)-1,3,5-triazin-2-yl]phenyl}-3-pyridin-3-ylurea], for which the IC50 on Human mTOR (FLAG-TOR) amounted to 8 nM; on PI3K-α (read-out: IC50 PI3Kα), 435 nM; in assay [1] (Homo sapiens, LNCaP, 72 h), 9500 nM.

Take `O=C(Nc1ccc(-c2nc(OCCN3CCCCC3)nc(N3CC4CCC(C3)O4)n2)cc1)Nc1cccnc1` [Example 173, 1-{4-[4-(8-oxa-3-azabicyclo[3.2.1]oct-3-yl)-6-(2-piperidin-1-ylethoxy)-1,3,5-triazin-2-yl]phenyl}-3-pyridin-3-ylurea]: the IC50 was 84 nM at Human mTOR (FLAG-TOR); 1210 nM on PI3K-α (read-out: IC50 PI3Kα); 2500 nM in assay [1] (Homo sapiens, LNCaP, 72 h).

Regarding `O=C(Nc1ccc(-c2nc(N(CCO)CCO)nc(N3CC4CCC(C3)O4)n2)cc1)Nc1cccnc1` [Example 205, 1-(4-{4-[bis(2-hydroxyethyl)amino]-6-(8-oxa-3-azabicyclo[3.2.1]oct-3-yl)-1,3,5-triazin-2-yl}phenyl)-3-pyridin-3-ylurea], the IC50 on Human mTOR (FLAG-TOR) came to 2 nM; in assay [1] (Homo sapiens, LNCaP, 72 h), 400 nM.

As for `O=C(Nc1ccc(-c2nc(N3CC4CCC(C3)O4)nc(N3C[C@@H]4C[C@H]3CN4)n2)cc1)Nc1cccnc1` [Example 206, 1-(4-{4-[(1S,4S)-2,5-diazabicyclo[2.2.1]hept-2-yl]-6-(8-oxa-3-azabicyclo[3.2.1]oct-3-yl)-1,3,5-triazin-2-yl}phenyl)-3-pyridin-3-ylurea], the half-inhibitory concentration (IC50) is 56 nM on Human mTOR (FLAG-TOR) and 5100 nM in assay [1] (Homo sapiens, LNCaP, 72 h).

As for `CN1CCN(c2ccc(Nc3nc(-c4ccc(NC(=O)Nc5cccnc5)cc4)nc(N4CC5CCC(C4)O5)n3)cc2)CC1` [Example 207, 1-{4-[4-{[4-(4-methylpiperazin-1-yl)phenyl]amino}-6-(8-oxa-3-azabicyclo[3.2.1]oct-3-yl)-1,3,5-triazin-2-yl]phenyl}-3-pyridin-3-ylurea], the IC50 on Human mTOR (FLAG-TOR) came out at 0.84 nM; in assay [1] (Homo sapiens, LNCaP, 72 h), 33.3 nM.

Regarding `O=C(Nc1ccc(-c2nc(Nc3ccc(N4CCNCC4)cc3)nc(N3CC4CCC(C3)O4)n2)cc1)Nc1cccnc1` [Example 208, 1-(4-{4-(8-oxa-3-azabicyclo[3.2.1]oct-3-yl)-6-[(4-piperazin-1-ylphenyl)amino]-1,3,5-triazin-2-yl}phenyl)-3-pyridin-3-ylurea], the IC50 worked out at 0.5 nM on Human mTOR (FLAG-TOR) and 50 nM in assay [1] (Homo sapiens, LNCaP, 72 h).

Turning to `CC(C)Nc1nc(-c2ccc(NC(=O)NC3CC3)cc2)nc(N2CC3CCC(C2)O3)n1` [Example 213, 1-cyclopropyl-3-(4-{4-[(1-methylethyl)amino]-6-(8-oxa-3-azabicyclo[3.2.1]oct-3-yl)-1,3,5-triazin-2-yl}phenyl)urea], the IC50 on Human mTOR (FLAG-TOR) worked out at 9.5 nM; on PI3K-α (read-out: IC50 PI3Kα) it was 5280 nM; in assay [1] (Homo sapiens, LNCaP, 72 h), 420 nM.

As to `CC(C)Nc1nc(-c2ccc(NC(=O)NCCO)cc2)nc(N2CC3CCC(C2)O3)n1` [Example 214, 1-(2-hydroxyethyl)-3-(4-{4-[(1-methylethyl)amino]-6-(8-oxa-3-azabicyclo[3.2.1]oct-3-yl)-1,3,5-triazin-2-yl}phenyl)urea], the IC50 on Human mTOR (FLAG-TOR) came out at 2.9 nM; on PI3K-α (read-out: IC50 PI3Kα), 2670 nM; in assay [1] (Homo sapiens, LNCaP, 72 h) it was 700 nM.

Take `CN1CCN(c2ccc(NC(=O)Nc3ccc(-c4nc(N5CC6CCC(C5)O6)nc(N5C6CCC5COC6)n4)cc3)cc2)CC1` [Example 303, 1-[4-(4-methylpiperazin-1-yl)phenyl]-3-{4-[4-(3-oxa-8-azabicyclo[3.2.1]oct-8-yl)-6-(8-oxa-3-azabicyclo[3.2.1]oct-3-yl)-1,3,5-triazin-2-yl]phenyl}urea]: the IC50 at Human mTOR (FLAG-TOR) stood at 17 nM; in assay [1] (Homo sapiens, LNCaP, 72 h), 0.8 nM.

In the case of `CN(C)CCOc1ccc(NC(=O)Nc2ccc(-c3nc(N4CCSCC4)nc(N4C5CCC4COC5)n3)cc2)cc1` [Example 365, 1-(4-(4-(3-oxa-8-azabicyclo[3.2.1]octan-8-yl)-6-thiomorpholino-1,3,5-triazin-2-yl)phenyl)-3-(4-(2-(dimethylamino)ethoxy)phenyl)urea], the IC50 on Human mTOR (FLAG-TOR) was 10 nM; in assay [1] (Homo sapiens, LNCaP, 72 h), 280 nM.

On to `CNC(=O)Nc1ccc(-c2nc(-c3ccc(NC(=O)Nc4cccc(C(N)=O)c4)cc3)nc(N3CCOCC3)n2)cc1` [Example 466, 3-({[4-(4-{4-[(methylcarbamoyl)amino]phenyl}-6-morpholin-4-yl-1,3,5-triazin-2-yl)phenyl]carbamoyl}amino) benzamide], for which the IC50 on Human mTOR (FLAG-TOR) came out at 1 nM; in assay [1] (MTS cell growth assay, three days after drug treatment, LNCap cells) it was 420 nM.

Turning to `CNC(=O)Nc1ccc(-c2nc(-c3ccc(NC(=O)Nc4cccnc4)cc3)nc(N3CCOCC3)n2)cc1` [Example 467, 1-methyl-3-[4-(4-morpholin-4-yl-6-{4-[(pyridin-3-ylcarbamoyl)amino]phenyl}-1,3,5-triazin-2-yl)phenyl]urea], the IC50 is < 1 nM at Human mTOR (FLAG-TOR) and 170 nM in assay [1] (Homo sapiens, LNCaP, 72 h).

Regarding `CNC(=O)Nc1ccc(-c2nc(-c3ccc(NC(=O)Nc4ccncc4)cc3)nc(N3CCOCC3)n2)cc1` [Example 468, 1-methyl-3-[4-(4-morpholin-4-yl-6-{4-[(pyridin-4-ylcarbamoyl)amino]phenyl}-1,3,5-triazin-2-yl)phenyl]urea], the IC50 at Human mTOR (FLAG-TOR) is < 1 nM; in assay [1] (Homo sapiens, LNCaP, 72 h), 50 nM.
